Test results published in US5089623A, “Certain imidate insecticides” (Imperial Chemical Industries Plc, priority 1990, dated 1992).

Legend:
Assay type in all cases: in vivo
[1] = tested on: Tobacco Budworm [Heliothis virescens (Fabricius)]; test: Tobacco budworm contact test (TBW-C); conditions: second-instar larvae, 5 days, percent in solution
Description: (§1) The compounds in Tables 1 and 2 above were tested for insecticidal activity using the following testing procedures. LC50 values, based on the results of these tests and calculated according to dosage-mortality curves, are expressed in Table 3.
Tobacco Budworm [Heliothis virescens (Fabricius)]
(a) Contact: Test compounds were diluted in a 50-50 acetonewater solution. Cotton (Gossypium sp.) cotyledons were immersed in the test solutions for 2-3 seconds and placed on a wire screen to dry. The dried leaves were placed in petri dishes containing a moistened piece of filter paper and infested with 5 second-instar tobacco budworm larvae. The dishes were placed in a high humidity chamber for 5 days, and percent mortality of the larvae recorded. Test concentrations ranged from 0.1% downward. The LC-50 values are expressed below in Table 3 under the heading "TBW-C" in terms of percent of the test compound in the solution.

[2] = tested on: Tobacco Budworm [Heliothis virescens (Fabricius)] eggs; test: Tobacco budworm egg test (TBW-E); conditions: percent in solution
[3] = tested on: Beet Armyworm (Spodoptera exigua); test: Beet armyworm test (BAW)
Description: as §1
Beet Armyworm (Spodoptera exigua)
Test compounds were diluted in a 50-50 acetone-water solution. Young leaves of sugar beets (Beta vulgaris) were immersed in the test solutions for 2-3 seconds and placed on a wire screen to dry. The dried leaves were placed in petri dishes containing a moistened filter paper and infested with five second-instar beet armyworm larvae. The dishes were placed in a high humidity chamber. Mortality of the larvae was recorded five days later. Test concentrations ranged from 0.1% downward. The LC-50 values are expressed below in Table 3 under the heading "BAW" in terms of percent of the test compound in solution.

[4] = tested on: Maize weevil [Sitophilus Zeamais (Motschulsky)]; test: Maize weevil test (MW); conditions: adult weevils, treated corn seeds, 48 hours, percent in solution
How it was run: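 Adult weevils (10) were placed with four corn seeds that had been dipped 2-3 s in compound dissolved in 50:50 acetone:water, then dried, and held at about 25° C. Mortality was scored at 48 h. LC50 was taken from dosage-mortality curves and expressed as percent compound in solution, from a 0.01% top concentration.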

[5] = tested on: Cabbage Looper [Trichoplusia ni (Hubner)]; test: Cabbage looper test (CL); conditions: second-instar larvae, 3-5 days, percent in solution
[6] = tested on: Aster Leafhopper [Macrosteles fascifrens (Stal)]; test: Aster leafhopper test (LH); conditions: adults/nymphs, 48 hours, percent in solution
[7] = tested on: Housefly [Musca domestica]; test: Housefly insecticidal test (HF); conditions: per 25 female houseflies, 48 hours
[8] = second-instar larvae, five days, percent in solution

Compound | LC50 TBW C [1] | LC50 TBW E [2] | LC50 BAW [3, 8] | LC50 MW [4] | LC50 CL [5] | LC50 LH [6] | LC50 HF [7] | LC50 BAW ([3]; 120 h)
Clc1cccc(N=C(OCc2cccc(Oc3ccccc3)c2)C(Cl)Cl)c1 [Compound 1] | 0.06% | 0.05% | 0.009% | > 0.01% | 0.005% | > 0.05% | 4.8 µg | –
CC(C)C(=Nc1ccc(Cl)cc1)OCc1cccc(Oc2ccccc2)c1 [Compound 2] | 0.0009% | 0.04% | 0.01% | – | 0.006% | 0.0003% | 4.5 µg | –
CC(Cl)(Cl)C(=Nc1ccc(Cl)cc1)OCc1cccc(Oc2ccccc2)c1 [Compound 3] | 0.009% | > 0.1% | 0.015% | > 0.01% | 0.012% | > 0.05% | 50 µg | –
Clc1ccc(N=C(OCc2cccc(Oc3ccccc3)c2)C(Cl)Cl)c(Cl)c1 [Compound 4] | 0.05% | > 0.1% | 0.04% | – | 0.007% | > 0.05% | 100 µg | –
CC1(C(=Nc2ccc(Cl)cc2)OCc2cccc(Oc3ccccc3)c2)CC1 [Compound 5] | 0.008% | 0.05% | 0.025% | > 0.01% | 0.005% | > 0.05% | 21 µg | –
CC(C)C(=Nc1ccc(Cl)c(Cl)c1)OCc1cccc(Oc2ccccc2)c1 [Compound 9] | 0.0008% | 0.02% | 0.0005% | > 0.01% | 0.001% | 0.0003% | 14 µg | –
Clc1ccc(N=C(OCc2cccc(Oc3ccccc3)c2)C(Cl)Cl)cc1 [Compound 29] | 0.001% | 0.01% | 0.003% | > 0.01% | 0.002% | 0.003% | 5 µg | –
ClCC(=Nc1ccc(Cl)cc1)OCc1cccc(Oc2ccccc2)c1 [Compound 31] | 0.01% | > 0.1% | 0.08% | > 0.01% | 0.05% | > 0.05% | > 100 µg | –
Clc1ccc(N=C(OCc2cccc(Oc3ccccc3)c2)C2CC2)cc1 [Compound 32] | 0.006% | 0.1% | – | > 0.01% | 0.003% | > 0.05% | 37 µg | 0.03%
CC(Cl)C(=Nc1ccc(Cl)cc1)OCc1cccc(Oc2ccccc2)c1 (stereo not shown) [Compound 33] | 0.0025% | > 0.1% | 0.02% | > 0.01% | 0.01% | > 0.05% | 17 µg | –
CC(=Nc1ccccc1)OCc1cccc(Oc2ccccc2)c1 [Compound 42] | > 0.1% | > 0.1% | > 0.1% | > 0.01% | > 0.1% | > 0.05% | 45 µg | –
Fc1ccc(N=C(OCc2cccc(Oc3ccccc3)c2)C2CC2)cc1 [Compound 45] | 0.01% | 0.08% | – | – | 0.03% | > 0.05% | 30 µg | 0.1%
CC(C)C(=Nc1cccc(F)c1)OCc1cccc(Oc2ccccc2)c1 [Compound 47] | 0.002% | 0.06% | 0.002% | – | 0.002% | 0.0003% | 10 µg | –
CC(C)C(=Nc1ccc(F)cc1F)OCc1cccc(Oc2ccccc2)c1 [Compound 52] | 0.004% | > 0.05% | 0.01% | – | 0.0025% | 0.001% | 8 µg | –
CC(C)C(=Nc1ccc(F)c(F)c1)OCc1cccc(Oc2ccccc2)c1 [Compound 54] | 0.001% | 0.017% | 0.004% | – | 0.0003% | 0.00015% | 3.5 µg | –
FC(F)(F)c1ccc(N=C(OCc2cccc(Oc3ccccc3)c2)C(Cl)Cl)cc1 [Compound 61] | 0.03% | 0.03% | 0.002% | > 0.01% | 0.001% | > 0.05% | 29 µg | –
FC(F)(F)c1ccc(N=C(OCc2cccc(Oc3ccccc3)c2)C2CC2)cc1 [Compound 62] | 0.0015% | 0.025% | – | > 0.01% | 0.005% | > 0.05% | 20 µg | 0.02%
FC(F)(F)Oc1ccc(N=C(OCc2cccc(Oc3ccccc3)c2)C2CC2)cc1 [Compound 63] | 0.001% | 0.05% | – | > 0.01% | 0.005% | 0.0001% | 30 µg | 0.005%
FC(F)(F)Oc1ccc(N=C(OCc2cccc(Oc3ccccc3)c2)C(Cl)Cl)cc1 [Compound 64] | 0.1% | 0.03% | 0.0025% | > 0.01% | 0.0025% | > 0.05% | 11 µg | –
FC(F)(F)c1ccc(N=C(OCc2cccc(Oc3ccccc3)c2)C2CC2)c(Cl)c1 [Compound 65] | 0.1% | > 0.1% | – | – | < 0.01% | > 0.05% | > 100 µg | > 0.1%
CC(C)C(=Nc1ccc(Cl)c(C(F)(F)F)c1)OCc1cccc(Oc2ccccc2)c1 [Compound 71] | 0.0008% | 0.065% | 0.0004% | – | 0.0006% | 0.002% | 50 µg | –
CC(C)C(=Nc1cccc(C(F)(F)F)c1)OCc1ccc(F)c(Oc2ccccc2)c1 [Compound 80] | 0.00075% | 0.005% | 0.0018% | – | 0.0003% | 0.0001% | 4.5 µg | –
CC(C)C(=Nc1ccc2c(c1)OC(F)(F)O2)OCc1ccc(F)c(Oc2ccc(F)cc2)c1 [Compound 284] | 0.0002% | – | 0.0025% | 0.0075% | 0.00005% | 0.0003% | 39 µg | –
CC(C)C(=Nc1ccc(Br)cc1)OCc1ccc(F)c(Oc2ccc(F)cc2)c1 [Compound 333] | 0.00075% | 0.025% | > 0.1% | > 0.01% | 0.00024% | – | 15 µg | –
CC(C)C(=Nc1ccc(I)cc1)OCc1ccc(F)c(Oc2ccc(F)cc2)c1 [Compound 335] | 0.00025% | 0.05% | > 0.1% | > 0.01% | 0.00027% | – | 34 µg | –
CC(C)C(=Nc1ccc(F)c(Cl)c1)OCc1cc(Oc2ccc(F)cc2)c(F)cc1F [Compound 343] | 0.00025% | > 0.1% | > 0.1% | > 0.01% | 0.00027% | – | 40 µg | –
CC(C)C(=Nc1ccc(F)c(Cl)c1)OCc1ccc(F)c(Oc2ccc(F)c(F)c2)c1 [Compound 346] | 0.0002% | > 0.1% | > 0.1% | – | > 0.1% | 0.05% | 7.2 µg | –
CC(C)C(=Nc1ccc2c(c1)OC(F)(F)O2)OCc1cccc(Oc2ccc(Cl)cc2)c1 [Compound 450] | 0.0001% | 0.015% | 0.005% | 0.01% | 0.00016% | – | 72 µg | –
